System: KPL-4 (human breast cancer)
Assay: Combination of Compound 1 and other antitumor agents (in vitro), CellTiter-Glo, median effect method
Format: cell-based
Description: The supplier of each reagent, the suppliers of tumor cell lines, the media used, and the numbers of cells to be inoculated are shown in the tables below.
The cells were inoculated at 20 μL/well to a 384-well culture plate (Corning Inc.). The plate inoculated with the cells were cultured in an incubator set to 37° C. and 5% CO2. On the day following inoculation, each of mixed solutions of Compound 1 and each other antitumor agent at varying combinations of concentrations was added to the cells. Specifically, 8 serial dilutions (including (0 nM)) of Compound 1 and 10 serial dilutions (including (0 nM)) of the other antitumor agent were prepared using Leibovitz's L-15 medium containing 10% FBS, or ATCC formulated RPMI-1640 medium containing 10% FBS. Drug solutions in which equal amounts of the respective serial dilutions of the compounds were dispensed were mixed at a ratio of 1:1 to prepare a total of 80 mixed drug solutions including every combination. Each of these mixed drug solutions was added at 5 μL/well (N=4) to the plate, followed by further culture for 3 days under conditions of 37° C. and 5% CO2.
Three days later, CellTiter-Glo™ 2.0 Reagent (Promega Corporation) was added thereto at 25 μL/well, and chemiluminescence was measured using a plate reader (EnSpire® Multimode Plate Reader, PerkinElmer Japan Co., Ltd.).
The enhancement of an effect by combined use of the drugs was evaluated according to a method known in the art (a method described in Trends Pharmacol. Sci., 4, 450-454, 1983 or Pharmacol Rev., 58 (3), 621-81, 2006).
An average value from 4 wells of each combination was calculated from the obtained data, and a cell survival rate normalized against a control supplemented with a medium containing a vehicle was calculated. A Fa (fraction of affect) value was calculated by subtracting the cell survival rate from 1. Median effect analysis software CalcuSyn 2.0 (CalcuSyn, Inc.) for calculation by the median effect method was used in the calculation of CI.
As for the combinations of the concentrations of both the drugs for calculating CI, a Fa value closer to 1 presumably means a concentration range in which one of the drugs had too strong an effect, and a Fa value closer to 0 presumably means a concentration range in which any of the drugs had too weak an effect. Since these concentration ranges were not appropriate for the discussion of a synergistic effect, combinations that satisfied 0.2 S Fa 0.8 were extracted from the combinations of the respective concentrations of Compound 1 and the other antitumor agent on the basis of the calculated Fa value.
An effect of combined use was determined as shown in the table below (Pharmacol Rev., 58 (3), p. 621-81, 2006).

[1] = Compound 1 68.6 nM + Paclitaxel 0.0229 nM, ratio 1:0.00033, KPL-4
[2] = Compound 1 68.6 nM + Paclitaxel […], ratio 1:0.00011, KPL-4
[3] = Compound 1 206 nM + Paclitaxel 0.617 nM, ratio 1:0.0030, KPL-4
[4] = Compound 1 206 nM + Paclitaxel 1.85 nM, ratio 1:0.0090, KPL-4
[5] = Compound 1 617 nM + Paclitaxel 1.85 nM, ratio 1:0.0030, KPL-4
[6] = Compound 1 1852 nM + Paclitaxel 1.85 nM, ratio 1:0.0010, KPL-4
[7] = Compound 1 5556 nM + Paclitaxel 1.85 nM, ratio 1:0.00033, KPL-4
[8] = Compound 1 5556 nM + Paclitaxel 5.56 nM, ratio 1:0.0010, KPL-4
[9] = Compound 1 16667 nM + Paclitaxel 1.85 nM, ratio 1:0.00011, KPL-4
[10] = Compound 1 50000 nM + Paclitaxel 1.85 nM, ratio 1:0.000037, KPL-4

With C=CC(=O)N1CCC[C@@H](n2nc(C(=O)Nc3ccc(CC(=O)N(C)C)c(C)c3C)c3c(N)ncnc32)C1 [Compound 1, (R)-1-(1-acryloylpiperidin-3-yl)-4-amino-N-(4-(2-(dimethylamino)-2-oxoethyl)-2,3-dimethylphenyl)-1H-pyrazolo[3,4-d]pyrimidine-3-carboxamide] the CI [1] was 0.03, the Fa [1] was 0.44 and the CI [2] was 0.15. The Fa [2] was 0.32, the CI [3] was 0.50 and the Fa [3] was 0.33. It also gave a CI [4] of 0.30, a Fa [4] of 0.52 and a CI [5] of 0.31. For the same molecule, the Fa [5] was 0.54, the CI [6] was 0.36 and the Fa [6] was 0.55. It also gave a CI [7] of 0.48, a Fa [7] of 0.57 and a CI [8] of 0.44. The Fa [8] was 0.78, the CI [9] was 0.38 and the Fa [9] was 0.66. The CI [10] was 0.13 and the Fa [10] was 0.86.
